From patent publication US20020137929A1, “1 - (3-heterocyclylphenyl) isothiourea, -isourea, -guanidine and -amidine herbicidal agents” (Intellectual Property Department, BASF Aktiengesellschaft, priority 1998, published 2002)

Key:
ZEAMX (Corn, Field) = experiment: Preemergence herbicidal evaluation; assay type: in vivo, Zea mays; conditions: rated 4-5 weeks after treatment
Outline: (§1)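 In this greenhouse assay, monocot and dicot seeds are planted in soil and treated prior to emergence with an aqueous acetone spray (about 0.0156-0.500 kg/ha). Plants are assessed visually against control on a 0-9 scale after 4-5 weeks.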

ABUTH (Velvetleaf) = experiment: Preemergence herbicidal evaluation; assay type: in vivo, Abutilon theophrasti; conditions: rated 4-5 weeks after treatment
Outline: as §1

CASOB (Sicklepod) [1] = experiment: Preemergence herbicidal evaluation; assay type: in vivo, Cassia obtusifolia; conditions: rated 4-5 weeks after treatment
Outline: as §1

[2] = test system: SAGPY (Arrowhead (Pygmaea)); experiment: Postemergence weed control under flooded paddy conditions; assay type: in vivo, Sagittaria pygmaea; conditions: postemergence weeds, 3-4 weeks after treatment
Outline: (§2)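 Containers holding 3–5 cm weeds and rice at 1.5–2.5 leaves are flooded to 1.5–3 cm above soil. Compound in 50/50 v/v aqueous/acetone is then added directly to the water, about 0.0313–0.500 kg/ha. Plants are kept in the greenhouse and rated 0–9 visually at 3–4 weeks.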

[3] = test system: TRZAWR (Wheat, Winter, cv Riband); experiment: Preemergence herbicidal evaluation; assay type: in vivo, Triticum aestivum; conditions: rated 4-5 weeks after treatment
Outline: as §1

MOOVA (Monochoria) = experiment: Preemergence weed control under flooded paddy conditions; assay type: in vivo, Monochoria vaginalis; conditions: rated 3-4 weeks after treatment
Outline: (§3)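 Flooded-pot preemergence screen with silt loam and seeds in the upper 0.5 cm. Dose about 0.0313 to 0.500 kg/ha, delivered into flood water; visual 0-9 score after 3 to 4 weeks.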

CASOB (Sicklepod) [4] = experiment: Postemergence herbicidal evaluation; assay type: in vivo, Cassia obtusifolia; conditions: postemergence
Outline: (§4)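 ~2-wk seedlings; postemergence spray, 40 psi; vehicle 1:1 acetone:water + 0.5% Tween 20; rate ≈0.0156–0.500 kg/ha; greenhouse hold; scored 4–5 wk after treatment, 0–9 scale vs control; repeat tests averaged.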

ORYSAT (Rice, Tebonnet) [5] = experiment: Preemergence herbicidal evaluation; assay type: in vivo, Oryza sativa, (L.) Tebonnet; conditions: rated 4-5 weeks after treatment
Outline: as §1

CYPSE (Flatsedge) = experiment: Postemergence weed control under flooded paddy conditions; assay type: in vivo, Cyperus serotinus; conditions: postemergence weeds, 3-4 weeks after treatment
Outline: as §2

AMBEL (Ragweed, Common) = experiment: Preemergence herbicidal evaluation; assay type: in vivo, Ambrosia artemisifolia; conditions: rated 4-5 weeks after treatment
Outline: as §1

ORYSAT (Rice, Tebonnet) [6] = experiment: Postemergence herbicidal evaluation; assay type: in vivo, Oryza sativa, (L.) Tebonnet; conditions: postemergence
Outline: as §4

[7] = test system: TRZAWR (Wheat, Winter, cv Riband); experiment: Postemergence herbicidal evaluation; assay type: in vivo, Triticum aestivum; conditions: postemergence
Outline: as §4

ECHCG (Barnyardgrass) = experiment: Postemergence herbicidal evaluation; assay type: in vivo, Echinochloa crus-galli; conditions: postemergence
Outline: as §4

[8] = test system: ECHORC (Watergrass (Calif.)); experiment: Preemergence weed control under flooded paddy conditions; assay type: in vivo, Echinochloa oryzoides; conditions: rated 3-4 weeks after treatment
Outline: as §3

CC1SC(=Nc2cc(N3C(=O)C4=C(CCCC4)C3=O)c(F)cc2Cl)N(C)C1=O (stereo not shown) [Compound 4]
ZEAMX preemergence herbicidal rating (ZEAMX (Corn, Field); rate 0.1250 kg/ha): 2.0
ZEAMX preemergence herbicidal rating (ZEAMX (Corn, Field); rate 0.2500 kg/ha): 2.0
ZEAMX preemergence herbicidal rating (ZEAMX (Corn, Field); rate 0.5000 kg/ha): 4.0
ABUTH preemergence herbicidal rating (ABUTH (Velvetleaf); rate 0.1250 kg/ha): 0.0
ABUTH preemergence herbicidal rating (ABUTH (Velvetleaf); rate 0.2500 kg/ha): 2.0
ABUTH preemergence herbicidal rating (ABUTH (Velvetleaf); rate 0.5000 kg/ha): 8.0
CASOB preemergence herbicidal rating (CASOB (Sicklepod) [1]; rate 0.1250 kg/ha): 0.0
CASOB preemergence herbicidal rating (CASOB (Sicklepod) [1]; rate 0.2500 kg/ha): 2.0
CASOB preemergence herbicidal rating (CASOB (Sicklepod) [1]; rate 0.5000 kg/ha): 7.0
Herbicidal rating SAGPY ([2]; rate 0.0313 kg/ha): 0.0
Herbicidal rating SAGPY ([2]; rate 0.0625 kg/ha): 0.0
Herbicidal rating SAGPY ([2]; rate 0.1250 kg/ha): 0.0
Herbicidal rating SAGPY ([2]; rate 0.2500 kg/ha): 0.0
Herbicidal rating SAGPY ([2]; rate 0.5000 kg/ha): 0.0
TRZAWR preemergence herbicidal rating ([3]; rate 0.1250 kg/ha): 2.0
TRZAWR preemergence herbicidal rating ([3]; rate 0.2500 kg/ha): 3.0
TRZAWR preemergence herbicidal rating ([3]; rate 0.5000 kg/ha): 3.0
Herbicidal rating MOOVA (MOOVA (Monochoria); 0.0313 kg/ha): 2.0
Herbicidal rating MOOVA (MOOVA (Monochoria); 0.0625 kg/ha): 7.0
Herbicidal rating MOOVA (MOOVA (Monochoria); 0.1250 kg/ha): 8.0
Herbicidal rating MOOVA (MOOVA (Monochoria); 0.2500 kg/ha): 9.0
Herbicidal rating MOOVA (MOOVA (Monochoria); 0.5000 kg/ha): 9.0
CASOB herbicidal rating (CASOB (Sicklepod) [4]; rate 0.0313 kg/ha): 0.0
CASOB herbicidal rating (CASOB (Sicklepod) [4]; rate 0.0625 kg/ha): 0.0
CASOB herbicidal rating (CASOB (Sicklepod) [4]; rate 0.1250 kg/ha): 0.0
CASOB herbicidal rating (CASOB (Sicklepod) [4]; rate 0.2500 kg/ha): 0.0
CASOB herbicidal rating (CASOB (Sicklepod) [4]; rate 0.5000 kg/ha): 2.0
ORYSAT preemergence herbicidal rating (ORYSAT (Rice, Tebonnet) [5]; rate 0.1250 kg/ha): 0.0
ORYSAT preemergence herbicidal rating (ORYSAT (Rice, Tebonnet) [5]; rate 0.2500 kg/ha): 2.0
ORYSAT preemergence herbicidal rating (ORYSAT (Rice, Tebonnet) [5]; rate 0.5000 kg/ha): 4.0
Herbicidal rating CYPSE (CYPSE (Flatsedge); rate 0.0313 kg/ha): 0.0
Herbicidal rating CYPSE (CYPSE (Flatsedge); rate 0.0625 kg/ha): 0.0
Herbicidal rating CYPSE (CYPSE (Flatsedge); rate 0.1250 kg/ha): 0.0
Herbicidal rating CYPSE (CYPSE (Flatsedge); rate 0.2500 kg/ha): 0.0
Herbicidal rating CYPSE (CYPSE (Flatsedge); rate 0.5000 kg/ha): 0.0
AMBEL preemergence herbicidal rating (AMBEL (Ragweed, Common); rate 0.1250 kg/ha): 0.0
AMBEL preemergence herbicidal rating (AMBEL (Ragweed, Common); rate 0.2500 kg/ha): 1.0
AMBEL preemergence herbicidal rating (AMBEL (Ragweed, Common); rate 0.5000 kg/ha): 4.0
ORYSAT herbicidal rating (ORYSAT (Rice, Tebonnet) [6]; rate 0.0313 kg/ha): 1.0
ORYSAT herbicidal rating (ORYSAT (Rice, Tebonnet) [6]; rate 0.0625 kg/ha): 1.0
ORYSAT herbicidal rating (ORYSAT (Rice, Tebonnet) [6]; rate 0.1250 kg/ha): 2.5
ORYSAT herbicidal rating (ORYSAT (Rice, Tebonnet) [6]; rate 0.2500 kg/ha): 1.5
ORYSAT herbicidal rating (ORYSAT (Rice, Tebonnet) [6]; rate 0.5000 kg/ha): 3.0
TRZAWR herbicidal rating ([7]; rate 0.0313 kg/ha): 3.0
TRZAWR herbicidal rating ([7]; rate 0.0625 kg/ha): 3.5
TRZAWR herbicidal rating ([7]; rate 0.1250 kg/ha): 4.0
TRZAWR herbicidal rating ([7]; rate 0.2500 kg/ha): 4.5
TRZAWR herbicidal rating ([7]; rate 0.5000 kg/ha): 4.5
ECHCG herbicidal rating (ECHCG (Barnyardgrass); rate 0.0313 kg/ha): 0.0
ECHCG herbicidal rating (ECHCG (Barnyardgrass); rate 0.0625 kg/ha): 0.0
ECHCG herbicidal rating (ECHCG (Barnyardgrass); rate 0.1250 kg/ha): 0.0
ECHCG herbicidal rating (ECHCG (Barnyardgrass); rate 0.2500 kg/ha): 4.0
ECHCG herbicidal rating (ECHCG (Barnyardgrass); rate 0.5000 kg/ha): 2.0
Herbicidal rating ECHORC ([8]; 0.0313 kg/ha): 2.0
Herbicidal rating ECHORC ([8]; 0.0625 kg/ha): 4.0
Herbicidal rating ECHORC ([8]; 0.1250 kg/ha): 7.0
Herbicidal rating ECHORC ([8]; 0.2500 kg/ha): 8.0
Herbicidal rating ECHORC ([8]; 0.5000 kg/ha): 9.0
